Measurements as given in paper PMC10095442, “Intelligent De Novo Design of Novel Antimicrobial Peptides against Antibiotic-Resistant Bacteria Strains” (International Journal of Molecular Sciences, 2023).
Residues, ends and D or L forms follow the SMILES beside them.

What was measured:
[1] = tested on: carbapenem-resistant P. aeruginosa (M06-06-0213); type: cell-based, Pseudomonas aeruginosa; details: P. aeruginosa M06-06-0213 (carbapenem-resistant clinical isolate); L.B. medium, approx. 10^5 CFU/mL, overnight incubation; at least three times
Procedure: (§1) MIC assays were conducted to determine the antibacterial spectrum of these peptides. MIC is defined as the minimum concentration of a reagent, viz., peptide, in this study, required to inhibit bacterial growth after overnight incubation. Microbial strains were cultured in an L.B. medium, and midlogarithmic-phase organisms were used in the antibacterial assays. All bacteria were inoculated in an L.B. medium (approximately 10^5 CFU/mL), and MIC assays were performed with various concentrations of each peptide. All activity measurements were conducted at least three times.

[2] = tested on: carbapenem-susceptible P. aeruginosa (S07-10-0059); type: cell-based, Pseudomonas aeruginosa; details: carbapenem-susceptible (S07-10-0059)
Procedure: as §1

[3] = tested on: methicillin-susceptible S. aureus (S01-10-0202); type: cell-based, Staphylococcus aureus; details: methicillin-susceptible (S01-10-0202)
Procedure: as §1

[4] = tested on: methicillin-resistant S. aureus (N07-10-0043); type: cell-based, Staphylococcus aureus; details: S. aureus MRSA N07-10-0043 (methicillin-resistant clinical isolate); L.B. medium, approx. 10^5 CFU/mL, overnight incubation; at least three times
Procedure: as §1

Measured: Antibacterial activity (MIC)

CC(C)[C@@H]1NC(=O)[C@H](CCCNC(=N)N)NC(=O)[C@H](Cc2ccccc2)NC(=O)[C@@H](NC(=O)[C@H](Cc2c[nH]c3ccccc23)NC(=O)[C@H](CCCNC(=N)N)NC(=O)[C@@H](N)CCCNC(=N)N)CSSC[C@@H](C(=O)N[C@@H](CCCNC(=N)N)C(N)=O)NC(=O)[C@H](CCCCN)NC(=O)[C@H](CCCNC(=N)N)NC(=O)[C@H](Cc2ccc(O)cc2)NC(=O)[C@@H]2CSSC[C@H](NC1=O)C(=O)N[C@@H](Cc1ccc(O)cc1)C(=O)N[C@@H](CCCNC(=N)N)C(=O)NCC(=O)N[C@@H](Cc1ccccc1)C(=O)N2 [polyphemusin I] (HELM PEPTIDE1{R.R.W.C.F.R.V.C.Y.R.G.F.C.Y.R.K.C.R.[am]}$PEPTIDE1,PEPTIDE1,4:R3-17:R3|PEPTIDE1,PEPTIDE1,8:R3-13:R3$$$V2.0; N-terminus and C-terminus assumed)
>50 µg/mL: all assays above
